Results as given in patent US20140213575A1, “6H-Thieno[3,2-f][1,2,4]triazolo[4,3-a][1,4]diazepines” (BAYER INTELLECTUAL PROPERTY GMBH, priority 2011, published 2014).

How the values were obtained:
B16F10 cells = test: Cellular proliferation assay (alamarBlue) B16F10; type: cell-based; details: Mus musculus, B16-F10, 96 hours, read-out: Melanoma B16F10 IC50
Description: (§1) In accordance with the invention, the ability of the substances to inhibit the proliferation of various cell lines was determined. Cell viability was determined by means of the alamarBlue® reagent (Invitrogen). […] After incubation overnight at 37° C., the fluorescence values were determined (CI values). […] Then the fluorescence values were determined (CO values).
(§2) The substances were investigated in the cell lines in Table 1, which for example represent the stated indications: […]

HeLa-MaTu cells = test: Cellular proliferation assay (alamarBlue) HeLa-MaTu; type: cell-based; details: 96 hours, read-out: Cervix HeLa-MaTu IC50
Description: as §1, §2

MCF-7 cells = test: Cellular proliferation assay (alamarBlue) MCF-7; type: cell-based; details: Homo sapiens, MCF7, 96 hours, read-out: Breast MCF-7 IC50
Description: as §1, §2

plasma proteins = test: Plasma protein binding by equilibrium dialysis; type: in vitro ADME, mouse; details: for fu: free fraction of the species investigated (mouse), as used in Table 6; for fraction unbound: mouse, plasma, free (unbound) fraction, equilibrium dialysis, read-out: Protein binding, given as % fu
Description: The binding of test substances to plasma proteins is determined by equilibrium dialysis by means of the Ht-dialysis apparatus (96-well) made of Teflon and a semipermeable membrane (regenerated cellulose, MWCO 12-14K). This separates 150 μl of each of a plasma side and a buffer side (50 mM phosphate buffer). The test substance is added in 2 concentrations (usually 3 and 0.3 μM) to the plasma side and binds to plasma proteins. The unbound fraction of the test substance passes through the membrane and is distributed on either side until equilibrium is established (after approx. 6-8 h at 37° C.). The substance concentration on the buffer side and the plasma side is determined by LC-MS analysis. For this, both sides are brought by dilution with buffer or plasma to the same matrix (10% plasma) and then precipitated with methanol. The free (unbound) fraction (fu) is calculated from the quotient of the buffer and plasma concentration. Stability tests and recovery tests are run concurrently as controls. In addition, the substance in buffer is dialysed against buffer, to check the nonspecific binding to apparatus and membrane and establishment of equilibrium. Because during incubation the osmotic pressure of the plasma proteins leads to dilution of the plasma (volume shift), this possible error is determined by weighing blank plasma samples and is included in the calculation of fu. Establishment of equilibrium and plasma stability should have a value not lower than 80% and the recovery should be at least 30%. A free fraction of <1% is regarded as high, between 1 and 10% as moderate and >10% as low plasma protein binding.

VCaP cells = test: Cellular proliferation assay (alamarBlue) VCaP; type: cell-based; details: Homo sapiens, 168 hours, read-out: Prostate VCaP IC50
Description: as §1, §2

LAPC-4 cells = test: Cellular proliferation assay (alamarBlue) LAPC-4; type: cell-based; details: Homo sapiens, LAPC4, 168 hours, read-out: Prostate LAPC-4 IC50
Description: as §1, §2

BRD4(1) = target: T1, BRD4(1) (Homo sapiens, UniProt O60885); test: Binding assay BRD4/acetylated peptide H4 (TR-FRET/HTRF protein-protein interaction assay); details: inhibition of interaction BRD4(1) / acetylated histone H4 peptide, TR-FRET
T1 construct: BRD4(1) (amino acids 44-168); made in house; host or cells: E. coli
Source text: Binding Assay BRD4/Acetylated Peptide H4 (“PRQ”)
To assess the BRD4 binding strength of the substances described in this application, their capacity for dose-dependent inhibition of the interaction between BRD4 and acetylated histone H4 was quantified.
For this purpose, a time-resolved fluorescence resonance energy transfer (TR-FRET) assay was used, which measures the binding between N-terminally His6-tagged BRD4(1) (amino acids 44-168) and a synthetic acetylated histone H4 (Ac-H4) peptide with the sequence GRGK(Ac)GGK(Ac)GLGK(Ac)GGAK(Ac)RHGSGSK-biotin. The recombinant BRD4 protein (produced in-house) was expressed in E. coli and was purified by (Ni-NTA) affinity chromatography and (Sephadex G-75) size-exclusion chromatography. The Ac-H4 peptide can be purchased for example from Biosyntan (Berlin, Germany).
In the assay, typically 11 different concentrations of each substance (0.1 nM, 0.33 nM, 1.1 nM, 3.8 nM, 13 nM, 44 nM, 0.15 μM, 0.51 μM, 1.7 μM, 5.9 μM and 20 μM) were measured as duplicates on the same microtitre plate. For this, 100-fold concentrated solutions in DMSO were prepared by serial dilutions (1:3.4) of a 2 mM stock solution in a clear, 384-well microtitre plate (Greiner Bio-One, Frickenhausen, Germany). From this, 50 nl was transferred to a black assay plate (Greiner Bio-One, Frickenhausen, Germany). The assay was started by supplying 2 μl of a 2.5-fold concentrated BRD4 solution (usually 10 to 50 nM final concentration in the 5 μl of the reaction volume) in aqueous assay buffer [50 mM HEPES pH 7.5, 50 mM sodium chloride (NaCl), 0.25 mM CHAPS and 0.05% serum albumin (BSA)] to the substances in the assay plate. This was followed by a 10-minute incubation step at 22° C. for the pre-equilibration of putative complexes between BRD4 and the substances.
The mixture was then incubated in the dark for one hour at 22° C. and then overnight at 4° C. The formation of BRD4/Ac-H4 complexes was determined by measuring the resonance energy transfer from the streptavidin-Eu-cryptate to the anti-6His-XL665 antibody that is present in the reaction. For this, the fluorescence emissions at 620 nm and 665 nm were measured after excitation at 330-350 nm in a TR-FRET measuring instrument, e.g. a Rubystar or Pherastar (both from BMG Lab Technologies, Offenburg, Germany) or a Viewlux (Perkin-Elmer). The ratio of the emissions at 665 nm and at […] was taken as an indicator of the amount of BRD4/Ac-H4 complexes formed.
The data obtained (ratio) were normalized, wherein 0% inhibition corresponded to the mean value from the measured values of a set of controls (usually 32 data points), in which all reagents were contained. 50 nl DMSO (100%) was used instead of test substances. Inhibition of 100% corresponded to the mean value from the measured values of a set of controls (usually 32 data points), in which all reagents except BRD4 were contained. The IC50 value was determined by regression analysis based on a 4-parameter equation (minimum, maximum, IC50, Hill; Y=Max+(Min−Max)/(1+(X/IC50)^Hill)) using Bayer's own analysis software.

Row | Structure (SMILES) | IC50 (B16F10 cells) [nM] | IC50 (HeLa-MaTu cells) [nM] | IC50 (MCF-7 cells) [nM] | fu (plasma proteins) [%] | fraction unbound (plasma proteins) | IC50 (VCaP cells) [nM] | IC50 (LAPC-4 cells) [nM] | IC50 (BRD4(1)) [nM]
1 | Cc1sc2c(c1C)C(c1ccc(Cl)cc1)=N[C@@H](CC(=O)N1CC3(COC3)C1)c1nnc(C)n1-2 [Example 2, 2-[(S)-4-(4-Chlorophenyl)-2,3,9-trimethyl-6H-thieno[3,2-f][1,2,4]triazolo[4,3-a][1,4]diazepin-6-yl]-1-(2-oxa-6-azaspiro[3.3]hept-6-yl)ethan-1-one] | 82 | 202 | 116 | 25 | 0.25 | 58 | 43 | 27
2 | Cc1sc2c(c1C)C(c1ccc(Cl)cc1)=N[C@@H](CC(=O)N1C3CCC1CC(=O)C3)c1nnc(C)n1-2 [Example 1, 8-{2-[(S)-4-(4-Chlorophenyl)-2,3,9-trimethyl-6H-thieno[3,2-f][1,2,4]triazolo[4,3-a][1,4]diazepin-6-yl]acetyl}-8-azabicyclo[3.2.1]octan-3-one] | 97 | 251 | 146 | 12 | 0.12 | 39 | 54 | 28
